Experimental findings from patent US8198456B2, “Dihydropyridine derivatives as useful as protein kinase inhibitors” (Bayer Intellectual Property GmbH, priority 2006, dated 2012) are described below.

SMILES strings stand for the structures. Structures can show the parent of a compound that is named as a salt.

For orientation: IC50 means the point on the concentration scale where inhibition reaches its midpoint.

The target of the test is T1, recombinant human c-MET kinase enzyme domain (Homo sapiens, UniProt P08581).
T1 construct: Recombinant c-Met kinase domain (amino acids 960-1390); His (N); made in house; host or cells: baculovirus expression system (insect cells; SF21 is named only for the alternative format)
T1 sequence (P08581 960-1390): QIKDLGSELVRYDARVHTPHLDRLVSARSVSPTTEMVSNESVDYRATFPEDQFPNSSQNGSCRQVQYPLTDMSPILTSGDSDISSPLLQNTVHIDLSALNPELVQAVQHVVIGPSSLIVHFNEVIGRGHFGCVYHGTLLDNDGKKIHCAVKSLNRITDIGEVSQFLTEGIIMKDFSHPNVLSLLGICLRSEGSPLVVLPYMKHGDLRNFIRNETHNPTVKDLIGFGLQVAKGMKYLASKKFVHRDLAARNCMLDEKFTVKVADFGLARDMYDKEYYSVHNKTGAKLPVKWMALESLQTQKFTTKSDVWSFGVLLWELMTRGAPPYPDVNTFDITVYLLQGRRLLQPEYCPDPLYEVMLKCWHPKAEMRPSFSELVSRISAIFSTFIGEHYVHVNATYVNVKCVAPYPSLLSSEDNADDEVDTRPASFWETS
Description: c-MET receptor tyrosine kinase Homogeneous Time Resolved Fluorescence assay (HTRF). The test is classed as biochemical. Conditions: Biological Example 1 and/or Biological Example 2. The essentials:
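His-tagged c-Met kinase domain (aa 960-1390, baculovirus) phosphorylated biotinylated poly-Glu-Tyr (37 nM) with 20 μM ATP in HEPES pH 7.4, Mg/Mn, DTT, 1% DMSO, 20 min at ambient temperature, EDTA-stopped. HTRF read (PT66-Eu/streptavidin-XL665, 665/620 nm ratio) after 4 h; IC50 from eight 1:3.16 dilutions.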
In the case of `CC1=C(C#N)C(c2ccc3[nH]nc(C#CCN(C)C)c3c2)C(C#N)=C(C)N1` [compound 139, 4-[3-[3-(dimethylamino)-1-propynyl]-1H-indazol-5-yl]-1,4-dihydro-2,6-dimethyl-3,5-pyridinedicarbonitrile], the IC50 is below 100 nM.
The value for `CC1=C(C#N)C(c2ccc3[nH]ncc3c2)C(C#N)=C(c2ccco2)N1` (centres unmarked) [compound 267, 2-(2-furanyl)-1,4-dihydro-4-(1H-indazol-5-yl)-6-methyl-3,5-pyridinedicarbonitrile] was below 100 nM; that for `CC1=C(C#N)C(c2ccc3[nH]nc(CNc4cccnc4)c3c2)C(C#N)=C(C)N1` [compound 91, 1,4-dihydro-2,6-dimethyl-4-[3-[(3-pyridinylamino)methyl]-1H-indazol-5-yl]-3,5-pyridinedicarbonitrile] was below 100 nM.
The value for `CC1=C(C#N)C(c2ccc3[nH]ncc3c2)C(C#N)=C(c2cccnc2)N1` (centres unmarked) [compound 266, 1,4-dihydro-4-(1H-indazol-5-yl)-6-methyl-[2,3′-bipyridine]-3,5-dicarbonitrile] was below 100 nM; that for `CC1=C(C#N)C(c2ccc3[nH]nc(N)c3c2)C(C#N)=C(c2ccoc2C)N1` (centres unmarked) [compound 282, 4-(3-amino-1H-indazol-5-yl)-1,4-dihydro-2-methyl-6-(2-methyl-3-furanyl)-3,5-pyridinedicarbonitrile] was below 100 nM.
The value for `CC1=C(C#N)C(c2cccc(C(=O)NCCC3CCNCC3)c2)C(C#N)=C(C)N1` [compound 26, 3-(3,5-dicyano-1,4-dihydro-2,6-dimethyl-4-pyridinyl)-N-[2-(4-piperidinyl)ethyl]-benzamide] was 100 to 500 nM; that for `CC1=C(C#N)C(c2ccc3[nH]nc(C(F)(F)F)c3c2)C(C#N)=C(C)N1` [compound 169, 1,4-dihydro-2,6-dimethyl-4-[3-(trifluoromethyl)-1H-indazol-5-yl]-3,5-pyridinedicarbonitrile] was 500 to 2500 nM; that for `CC1=C(C#N)C(c2ccc3[nH]nc(C(=O)O)c3c2)C(C#N)=C(C)N1` [compound 86, 5-(3,5-dicyano-1,4-dihydro-2,6-dimethyl-4-pyridinyl)-1H-indazole-3-carboxylic acid] was below 100 nM.
For the compound `CC1=C(C#N)C(c2ccc3[nH]ncc3c2)C(C#N)=C(c2ccc(NCCN(C)C)nc2)N1` (centres unmarked) [compound 275], the half-inhibitory concentration (IC50) is below 100 nM.
In the case of `CC1=C(C#N)C(c2cccc(C(=O)Nc3ccc(CO)cn3)c2)C(C#N)=C(C)N1` [compound 72, 3-(3,5-dicyano-1,4-dihydro-2,6-dimethyl-4-pyridinyl)-N-[5-(hydroxymethyl)-2-pyridinyl]-benzamide] it was 100 to 500 nM; in that of `CC1=C(C#N)C(c2cccc(C(=O)Nc3ccc(CN(C)C)cn3)c2)C(C#N)=C(C)N1` [compound 76, 3-(3,5-dicyano-1,4-dihydro-2,6-dimethyl-4-pyridinyl)-N-[5-[(dimethylamino)methyl]-2-pyridinyl]-benzamide], 100 to 500 nM; in that of `CC1=C(C#N)C(c2ccc3[nH]nc(NCc4ccc(N5CCOCC5)cc4)c3c2)C(C#N)=C(C)N1` [compound 163, 1,4-dihydro-2,6-dimethyl-4-[3-[[[4-(4-morpholinyl)phenyl]methyl]amino]-1H-indazol-5-yl]-3,5-pyridinedicarbonitrile], below 100 nM.
In the case of `CC1=C(C#N)C(c2ccc3[nH]nc(I)c3c2)C(C#N)=C(C)N1` [compound 93, 1,4-dihydro-4-(3-iodo-1H-indazol-5-yl)-2,6-dimethyl-3,5-pyridinedicarbonitrile] it was below 100 nM; in that of `CC1=C(C#N)C(c2ccc3[nH]nc(Cl)c3c2)C(C#N)=C(C)N1` [compound 148, 4-(3-chloro-1H-indazol-5-yl)-1,4-dihydro-2,6-dimethyl-3,5-pyridinedicarbonitrile], below 100 nM; in that of `CC1=C(C#N)C(c2ccc3[nH]nc(NCc4ccc([N+](=O)[O-])cc4)c3c2)C(C#N)=C(C)N1` [compound 127, 1,4-dihydro-2,6-dimethyl-4-[3-[[(4-nitrophenyl)methyl]amino]-1H-indazol-5-yl]-3,5-pyridinedicarbonitrile], 500 to 2500 nM.
In the case of `CC1=C(C#N)C(c2ccc3[nH]nc(N)c3c2)C(C#N)=C(c2ccc(Cl)cc2)N1` (centres unmarked) [compound 264, 4-(3-amino-1H-indazol-5-yl)-2-(4-chlorophenyl)-1,4-dihydro-6-methyl-3,5-pyridinedicarbonitrile] it was below 100 nM; in that of `CC1=C(C#N)C(c2cccc(C(N)=O)c2)C(C#N)=C(C)N1` [compound 17, 3-(3,5-dicyano-1,4-dihydro-2,6-dimethyl-4-pyridinyl)-benzamide], 500 to 2500 nM.
For `CNC(=O)c1cccc(C2C(C#N)=C(C)NC(c3ccc(N)cc3)=C2C#N)c1` (centres unmarked) [compound 238, 3-[2-(4-aminophenyl)-3,5-dicyano-1,4-dihydro-6-methyl-4-pyridinyl]-N-methyl-benzamide], the IC50 lay in the range of 500 to 2500 nM.
In the case of `CC1=C(C#N)C(c2ccc3[nH]nc(-c4ccc(N5CCNCC5)cc4)c3c2)C(C#N)=C(C)N1` [compound 111, 1,4-dihydro-2,6-dimethyl-4-[3-[4-(1-piperazinyl)phenyl]-1H-indazol-5-yl]-3,5-pyridinedicarbonitrile] it was below 100 nM.
The value for `CC1=C(C#N)C(c2cccc(C(=O)NCCCn3ccnc3)c2)C(C#N)=C(c2cccc(N)c2)N1` (centres unmarked) [compound 246, 3-[2-(3-aminophenyl)-3,5-dicyano-1,4-dihydro-6-methyl-4-pyridinyl]-N-[3-(1H-imidazol-1-yl)propyl]-benzamide] was 100 to 500 nM.
The value for `CC1=C(C#N)C(c2ccc3[nH]nc(C)c3c2)C(C#N)=C(C)N1` [compound 81, 1,4-dihydro-2,6-dimethyl-4-(3-methyl-1H-indazol-5-yl)-3,5-pyridinedicarbonitrile] was below 100 nM.
As for `CC1=C(C#N)C(c2ccc3[nH]nc(-c4ccc(N5CCN(CCO)CC5)cc4)c3c2)C(C#N)=C(C)N1` [compound 152, 1,4-dihydro-4-[3-[4-[4-(2-hydroxyethyl)-1-piperazinyl]phenyl]-1H-indazol-5-yl]-2,6-dimethyl-3,5-pyridinedicarbonitrile], the IC50 was below 100 nM.
In the case of `CC1=C(C#N)C(c2ccc3[nH]ncc3c2)C(C#N)=C(c2cccc(N)c2)N1` (centres unmarked) [compound 252, 2-(3-aminophenyl)-1,4-dihydro-4-(1H-indazol-5-yl)-6-methyl-3,5-pyridinedicarbonitrile] it was below 100 nM; in that of `CC1=C(C#N)C(c2ccc3[nH]nc(N)c3c2)C(C#N)=C(c2ccccc2)N1` (centres unmarked) [compound 259, 4-(3-amino-1H-indazol-5-yl)-1,4-dihydro-2-methyl-6-phenyl-3,5-pyridinedicarbonitrile], below 100 nM.
The value for `CC1=C(C#N)C(c2ccc3[nH]ncc3c2)C(C#N)=C(c2ccc(N(C)CCO)nc2)N1` (centres unmarked) [compound 273, 1,4-dihydro-6′-[(2-hydroxyethyl)methylamino]-4-(1H-indazol-5-yl)-6-methyl-[2,3′-bipyridine]-3,5-dicarbonitrile] was below 100 nM; that for `CC1=C(C#N)C(c2ccc3[nH]ncc3c2)C(C#N)=C(c2ccccc2)N1` (centres unmarked) [compound 249, 1,4-dihydro-4-(1H-indazol-5-yl)-2-methyl-6-phenyl-3,5-pyridinedicarbonitrile] was below 100 nM; that for `CC1=C(C#N)C(c2ccc3[nH]nc(N4CCNCC4)c3c2)C(C#N)=C(C)N1` [compound 164, 1,4-dihydro-2,6-dimethyl-4-[3-(1-piperazinyl)-1H-indazol-5-yl]-3,5-pyridinedicarbonitrile] was below 100 nM.
In the case of `CC1=C(C#N)C(c2ccc3[nH]nc(-c4nc5ccccc5[nH]4)c3c2)C(C#N)=C(C)N1` [compound 142, 4-[3-(1H-benzimidazol-2-yl)-1H-indazol-5-yl]-1,4-dihydro-2,6-dimethyl-3,5-pyridinedicarbonitrile] it was below 100 nM.
Turning to `CC1=C(C#N)C(c2ccc3[nH]ncc3c2)C(C#N)=C(c2ccc(CO)cc2)N1` (centres unmarked) [compound 258, 1,4-dihydro-2-[4-(hydroxymethyl)phenyl]-4-(1H-indazol-5-yl)-6-methyl-3,5-pyridinedicarbonitrile], the IC50 was below 100 nM.
In the case of `CC1=C(C#N)C(c2ccc3[nH]nc(NCc4cccnc4)c3c2)C(C#N)=C(C)N1` [compound 120, 1,4-dihydro-2,6-dimethyl-4-[3-[(3-pyridinylmethyl)amino]-1H-indazol-5-yl]-3,5-pyridinedicarbonitrile], the IC50 was below 100 nM.
The value for `CC1=C(C#N)C(c2ccc3[nH]nc(-c4ccc(N5CCN(C(=O)OC(C)(C)C)CC5)cc4)c3c2)C(C#N)=C(C)N1` [compound 155, 4-[4-[5-(3,5-dicyano-1,4-dihydro-2,6-dimethyl-4-pyridinyl)-1H-indazol-3-yl]-phenyl]-1-piperazinecarboxylic acid 1,1-dimethylethyl ester] was below 100 nM; that for `CCCN1CCN(c2n[nH]c3ccc(C4C(C#N)=C(C)NC(C)=C4C#N)cc23)CC1` [165.1, 2,6-dimethyl-4-[3-(4-propyl-piperazin-1-yl)-1H-indazol-5-yl]-1,4-dihydropyridine-3,5-dicarbonitrile, TFA salt] was below 100 nM.
The value for `CC1=C(C#N)C(c2ccc3[nH]nc(O)c3c2)C(C#N)=C(C)N1` [compound 176, 1,4-dihydro-4-(3-hydroxy-1H-indazol-5-yl)-2,6-dimethyl-3,5-pyridinedicarbonitrile] was 500 to 2500 nM; that for `CNC(=O)c1cccc(C2C(C#N)=C(C)NC(c3ccc(O)cc3)=C2C#N)c1` (centres unmarked) [compound 239, 3-[3,5-dicyano-1,4-dihydro-2-(4-hydroxyphenyl)-6-methyl-4-pyridinyl]-N-methyl-benzamide] was 500 to 2500 nM; that for `CC1=C(C#N)C(c2ccc3[nH]nc(NCCN4CCCC4)c3c2)C(C#N)=C(C)N1` [compound 309, 1,4-dihydro-2,6-dimethyl-4-[3-[[2-(1-pyrrolidinyl)ethyl]amino]-1H-indazol-5-yl]-3,5-pyridinedicarbonitrile] was below 100 nM.
